# Data taken from US7019002B2, “Pyridopyrimidinones derivatives as telomerase inhibitors” (Pharmacia & Upjohn, S.p.A., priority 2001, dated 2006).
# Target: T1, telomerase enzyme (Homo sapiens, UniProt O14746)
# T1 construct: telomerase enzyme diluted in a buffer
# Assay: Flash Plate-based telomerase activity assay
# Type: biochemical
# Conditions: telomerase inhibition; two hours of incubation at 37°; Flash Plate readout, Sigma Plot fit
# Method: The telomerase activity of compounds of the invention have been evaluated using a Flash Plate-based assay.
# Briefly the assay mixture is constituted of: • telomerase enzyme diluted in a buffer, the composition of which has been selected to maintain the enzyme activity stable along the duration of the assay. • dNTPs, deoxynucleotides 5′-triphosphate. • biotinylated oligo as primer. • increasing concentrations of test compounds/positive control.
# After two hours of incubation at 37° degrees the telomeric repeats added are evaluated by hybridization in solution with a 3′-labeled short oligonucleotide probe.
# The extent of hybridization is then quantitated by transferring the reaction mixture in a streptavidin-coated flash plate, where the binding between biotin and streptavidin occurs.
# The telomerase activity is proportional to the radioactivity measured and the inhibitory activity of the compounds is evaluated as IC50 using the Sigma Plot fit program.
# With the above-described method IC50 values of the compounds of the present invention were determined.
# T1 sequence (O14746 whole entry): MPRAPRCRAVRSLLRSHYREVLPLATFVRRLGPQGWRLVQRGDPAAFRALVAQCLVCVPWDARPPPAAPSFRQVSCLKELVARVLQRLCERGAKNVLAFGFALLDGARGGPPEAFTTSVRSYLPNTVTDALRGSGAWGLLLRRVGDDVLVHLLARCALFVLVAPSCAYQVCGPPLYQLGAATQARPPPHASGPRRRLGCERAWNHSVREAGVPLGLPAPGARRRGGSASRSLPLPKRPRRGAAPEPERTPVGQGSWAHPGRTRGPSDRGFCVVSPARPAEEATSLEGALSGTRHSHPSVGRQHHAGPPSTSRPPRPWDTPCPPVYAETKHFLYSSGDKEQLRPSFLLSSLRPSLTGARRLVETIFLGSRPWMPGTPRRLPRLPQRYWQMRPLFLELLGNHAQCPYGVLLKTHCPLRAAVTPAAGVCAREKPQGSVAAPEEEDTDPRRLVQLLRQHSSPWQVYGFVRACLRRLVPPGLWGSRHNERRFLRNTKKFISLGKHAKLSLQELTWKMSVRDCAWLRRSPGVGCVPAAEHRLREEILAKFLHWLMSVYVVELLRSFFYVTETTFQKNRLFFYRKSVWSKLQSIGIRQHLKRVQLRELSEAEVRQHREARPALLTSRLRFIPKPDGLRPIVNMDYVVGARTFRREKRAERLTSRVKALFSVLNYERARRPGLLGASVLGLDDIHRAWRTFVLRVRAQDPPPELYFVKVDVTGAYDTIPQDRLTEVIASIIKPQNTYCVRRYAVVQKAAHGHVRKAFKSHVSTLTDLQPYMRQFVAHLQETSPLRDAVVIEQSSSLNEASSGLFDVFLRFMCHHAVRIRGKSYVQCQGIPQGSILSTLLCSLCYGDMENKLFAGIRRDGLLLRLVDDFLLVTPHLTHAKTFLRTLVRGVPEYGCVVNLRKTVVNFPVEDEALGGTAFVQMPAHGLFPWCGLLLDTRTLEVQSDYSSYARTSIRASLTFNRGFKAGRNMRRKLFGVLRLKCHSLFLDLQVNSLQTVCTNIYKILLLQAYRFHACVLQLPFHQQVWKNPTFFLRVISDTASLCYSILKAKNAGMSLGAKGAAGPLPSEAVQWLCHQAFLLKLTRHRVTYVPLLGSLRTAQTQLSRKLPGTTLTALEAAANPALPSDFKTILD
row,IC50 [µM],Compound
1,6.1,"Cc1nc(N2CCN(c3ccc(F)cc3)CC2)nc2c1ccc(=O)n2-c1ccc(C(=O)NCc2ccccc2)cc1 [Compound 20, N-benzyl-4-(2-[4-(4-fluorophenyl)-1-piperazinyl]-4-methyl-7-oxopyrido[2,3-d]pyrimidin-8(7H)-yl)benzamide]"
2,21.8,"Cc1nc(N2CCN(c3ccc(F)cc3)CC2)nc2c1ccc(=O)n2-c1ccc(C(=O)NCc2ccco2)cc1 [Compound 21, 4-(2-[4-(4-fluorophenyl)-1-piperazinyl]-4-methyl-7-oxopyrido[2,3-d]pyrimidin-8(7H)-yl)-N-(2-furylmethyl)benzamide]"
3,3.8,"Cc1nc(N2CCN(c3ccccn3)CC2)nc2c1ccc(=O)n2-c1ccc(C(=O)NCc2ccco2)cc1 [Compound 24, N-(2-furylmethyl)-4-(4-methyl-7-oxo-2-[4-(2-pyridinyl)-1-piperazinyl]pyrido[2,3-d]pyrimidin-8(7H)-yl)benzamide]"
4,1.7,"COc1ccc(CNC(=O)c2ccc(-n3c(=O)ccc4c(C)nc(N5CCN(c6ccccn6)CC5)nc43)cc2)cc1OC [Compound 25, N-(3,4-dimethoxybenzyl)-4-(4-methyl-7-oxo-2-[4-(2-pyridinyl)-1-piperazinyl]pyrido[2,3-d]pyrimidin-8(7H)-yl)benzamide]"
5,3.9,"Cc1nc(N2CCN(c3ncccn3)CC2)nc2c1ccc(=O)n2-c1ccc(C(=O)NCc2ccccc2)cc1 [Compound 27, N-benzyl-4-(4-methyl-7-oxo-2-[4-(2-pyrimidinyl)-1-piperazinyl]pyrido[2,3-d]pyrimidin-8(7H)-yl)benzamide]"
6,16.6,"Cc1nc(N2CCN(c3ncccn3)CC2)nc2c1ccc(=O)n2-c1ccc(C(=O)NCc2ccco2)cc1 [Compound 28, N-(2-furylmethyl)-4-(4-methyl-7-oxo-2-[4-(2-pyrimidinyl)-1-piperazinyl]pyrido[2,3-d]pyrimidin-8(7H)-yl)benzamide]"
7,9.4,"Cc1nc(N2CCN(c3ncccn3)CC2)nc2c1ccc(=O)n2-c1ccc(C(=O)NCc2cccnc2)cc1 [Compound 30, 4-(4-methyl-7-oxo-2-[4-(2-pyrimidinyl)-1-piperazinyl]pyrido[2,3-d]pyrimidin-8(7H)-yl)-N-(3-pyridinylmethyl)benzamide]"
8,9.4,"Cc1nc(N2CCN(c3ncccn3)CC2)nc2c1ccc(=O)n2-c1ccc(C(=O)NCc2ccc(F)cc2F)cc1 [Compound 31, N-(2,4-difluorobenzyl)-4-(4-methyl-7-oxo-2-[4-(2-pyrimidinyl)-1-piperazinyl]pyrido[2,3-d]pyrimidin-8(7H)-yl)benzamide]"
9,1.25,"Cc1nc(N2CCN(c3ncccn3)CC2)nc2c1ccc(=O)n2-c1ccc(C(=O)NCc2cccc3ccccc23)cc1 [Compound 32, 4-(4-methyl-7-oxo-2-[4-(2-pyrimidinyl)-1-piperazinyl]pyrido[2,3-d]pyrimidin-8(7H)-yl)-N-(1-naphthylmethyl)benzamide]"
10,1.1,"Cc1nc(N2CCc3ccccc3C2)nc2c1ccc(=O)n2-c1ccc(C(=O)NC2CC2)cc1 [Compound 33, N-cyclopropyl-4-(2-(3,4-dihydro-2(1H)-isoquinolinyl)-4-methyl-7-oxopyrido[2,3-d]pyrimidin-8(7H)-yl)benzamide]"
11,8.2,"COc1ccc(NC(=O)c2ccc(-n3c(=O)ccc4c(C)nc(N5CCc6ccccc6C5)nc43)cc2)cc1OC [Compound 34, 4-(2-(3,4-dihydro-2(1H)-isoquinolinyl)-4-methyl-7-oxopyrido[2,3-d]pyrimidin-8(7H)-yl)-N-(3,4-dimethoxyphenyl)benzamide]"
12,1.9,"Cc1nc(N2CCc3ccccc3C2)nc2c1ccc(=O)n2-c1ccc(C(=O)N(C)C)cc1 [Compound 35, 4-(2-(3,4-dihydro-2(1H)-isoquinolinyl)-4-methyl-7-oxopyrido[2,3-d]pyrimidin-8(7H)-yl)-N,N-dimethylbenzamide]"
13,2,"COc1ccc(CNC(=O)c2ccc(-n3c(=O)ccc4c(C)nc(N5CCc6ccccc6C5)nc43)cc2)cc1OC [Compound 36, 4-(2-(3,4-dihydro-2(1H)-isoquinolinyl)-4-methyl-7-oxopyrido[2,3-d]pyrimidin-8(7H)-yl)-N-(3,4-dimethoxybenzyl)benzamide]"
14,2.9,"CCOC(=O)c1ccc(NC(=O)c2ccc(-n3c(=O)ccc4c(C)nc(N5CCc6ccccc6C5)nc43)cc2)cc1 [Compound 37, Ethyl 4-{[4-(2-(3,4-dihydro-2(1H)-isoquinolinyl)-4-methyl-7-oxopyrido[2,3-d]pyrimidin-8(7H)-yl)benzoyl]amino}benzoate]"
15,1.6,"Cc1nc(N2CCc3ccccc3C2)nc2c1ccc(=O)n2-c1ccc(C(=O)Nc2cccc(C#N)c2)cc1 [Compound 38, N-(3-cyanophenyl)-4-(2-(3,4-dihydro-2(1H)-isoquinolinyl)-4-methyl-7-oxopyrido[2,3-d]pyrimidin-8(7H)-yl)benzamide]"
16,1.4,"Cc1nc(N2CCc3ccccc3C2)nc2c1ccc(=O)n2-c1ccc(C(=O)NC2CCCCC2)cc1 [Compound 39, N-cyclohexyl-4-(2-(3,4-dihydro-2(1H)-isoquinolinyl)-4-methyl-7-oxopyrido[2,3-d]pyrimidin-8(7H)-yl)benzamide]"
17,3.1,"COC(=O)c1ccc(Nc2nc(C)c3ccc(=O)n(-c4ccc(C(=O)OC)cc4)c3n2)cc1 [Compound 41, methyl 4-({8-[4-(methoxycarbonyl)phenyl]-4-methyl-7-oxo-7,8-dihydropyrido[2,3-d]pyrimidin-2-yl}amino)benzoate]"
18,4.6,"CCOC(=O)c1ccc(Nc2nc(C)c3ccc(=O)n(-c4ccc(C(=O)OCC)cc4)c3n2)cc1 [Compound 42, Ethyl 4-({8-[4-(ethoxycarbonyl)phenyl]-4-methyl-7-oxo-7,8-dihydropyrido[2,3-d]pyrimidin-2-yl}amino)benzoate]"
19,6.1,"CCCCCCCCNC(=O)c1ccc(-n2c(=O)ccc3c(C)nc(NCC(C)C)nc32)cc1 [Compound 43, 4-(2-Isobutylamino-4-methyl-7-oxo-7H-pyrido[2,3-d]pyrimidin-8-yl)-N-octyl-benzamide]"
20,19.1,"Cc1nc(NCC(C)C)nc2c1ccc(=O)n2-c1ccc(C(=O)Nc2ccccc2)cc1 [Compound 44, 4-(2-Isobutylamino-4-methyl-7-oxo-7H-pyrido[2,3-d]pyrimidin-8-yl)-N-phenyl-benzamide]"
21,7.3,"Cc1nc(N2CCc3ccccc3C2)nc2c1ccc(=O)n2-c1ccc(C(=O)NCC[N+]2([O-])CCOCC2)cc1 [Compound 45, 4-[2-(3,4-Dihydro-1H-isoquinolin-2-yl)-4-methyl-7-oxo-7H-pyrido[2,3-d]pyrimidin-8-yl]-N-[2-(4-oxy-morpholin-4-yl)-ethyl]-benzamide]"
22,2.6,"Cc1nc(N2CCc3ccccc3C2)nc2c1ccc(=O)n2-c1ccc(C(=O)NCCC[N+](C)(C)[O-])cc1 [Compound 46, 4-(2-(3,4-dihydro-2(1H)-isoquinolinyl)-4-methyl-7-oxopyrido[2,3-d]pyrimidin-8(7H)-yl)-N-[3-(dimethylamino-N-oxido)propyl]benzamide]"
